What was measured:
Format in all cases: functional
A549 = assay: Growth inhibition of human A549 cells at 10 uM after 24 hrs by MTT assay relative to control; design: scale not given: the % may be the effect or the level left
EKVX = assay: Growth inhibition of human EKVX cells after 24 hrs by MTT assay
HCT-116 [1] = assay: Growth inhibition of human HCT116 cells at 10 uM after 24 hrs by MTT assay relative to control; design: scale not given: the % may be the effect or the level left
RXF 393 = assay: Growth inhibition of human RXF393 cells after 24 hrs by MTT assay; conditions: RXF 393, 24 h
786-0 = assay: Growth inhibition of human 786-0 cells after 24 hrs by MTT assay; conditions: 786-0, 24 h
UO-31 [2] = assay: Growth inhibition of human UO31 cells after 24 hrs by MTT assay; conditions: UO-31, 24 h
MOLT-4 = assay: Growth inhibition of human MOLT4 cells at 10 uM after 24 hrs by MTT assay relative to control; design: scale not given: the % may be the effect or the level left
UACC-257 = assay: Growth inhibition of human UACC257 cells after 24 hrs by MTT assay; conditions: UACC-257, 24 h
MDA-MB-468 = assay: Growth inhibition of human MDA-MB-468 cells after 24 hrs by MTT assay; conditions: MDA-MB-468, 24 h
OVCAR-8 [3] = assay: Growth inhibition of human OVCAR8 cells at 10 uM after 24 hrs by MTT assay relative to control; design: scale not given: the % may be the effect or the level left
NCI-H23 = assay: Growth inhibition of human NCI-H23 cells at 10 uM after 24 hrs by MTT assay relative to control; design: scale not given: the % may be the effect or the level left
HOP-92 = assay: Growth inhibition of human HOP92 cells at 10 uM after 24 hrs by MTT assay relative to control; design: scale not given: the % may be the effect or the level left
HOP-62 [4] = assay: Growth inhibition of human HOP62 cells at 10 uM after 24 hrs by MTT assay relative to control; design: scale not given: the % may be the effect or the level left
SK-MEL-5 = assay: Growth inhibition of human SK-MEL-5 cells after 24 hrs by MTT assay; conditions: SK-MEL-5, 24 h
SNB-75 = assay: Growth inhibition of human SNB75 cells after 24 hrs by MTT assay; conditions: SNB-75, 24 h
OVCAR-8 [5] = assay: Growth inhibition of human OVCAR8 cells after 24 hrs by MTT assay; conditions: OVCAR-8, 24 h
A498 [6] = assay: Growth inhibition of human A498 cells after 24 hrs by MTT assay; conditions: A498, 24 h
HL-60(TB) = assay: Growth inhibition of human HL-60(TB) cells at 10 uM after 24 hrs by MTT assay relative to control; design: scale not given: the % may be the effect or the level left
SW-620 = assay: Growth inhibition of human SW620 cells at 10 uM after 24 hrs by MTT assay relative to control; design: scale not given: the % may be the effect or the level left
LOX IMVI = assay: Growth inhibition of human LOXIMVI cells at 10 uM after 24 hrs by MTT assay relative to control; design: scale not given: the % may be the effect or the level left
SNB-19 = assay: Growth inhibition of human SNB19 cells at 10 uM after 24 hrs by MTT assay relative to control; design: scale not given: the % may be the effect or the level left
SF-295 = assay: Growth inhibition of human SF295 cells at 10 uM after 24 hrs by MTT assay relative to control; design: scale not given: the % may be the effect or the level left
OVCAR-4 = assay: Growth inhibition of human OVCAR4 cells after 24 hrs by MTT assay; conditions: OVCAR-4, 24 h
SK-OV-3 = assay: Growth inhibition of human SKOV3 cells after 24 hrs by MTT assay; conditions: SK-OV-3, 24 h
[7] = Growth inhibition of human Hs 578T cells at 10 uM after 24 hrs by MTT assay relative to control; design: scale not given: the % may be the effect or the level left
CAKI-1 = assay: Growth inhibition of human Caki1 cells after 24 hrs by MTT assay; conditions: CAKI-1, 24 h
CCRF-CEM = assay: Growth inhibition of human CCRF-CEM cells after 24 hrs by MTT assay
HOP-62 [8] = assay: Growth inhibition of human HOP62 cells after 24 hrs by MTT assay; conditions: HOP-62, 24 h
HCT-116 [9] = assay: Growth inhibition of human HCT116 cells after 24 hrs by MTT assay; conditions: HCT-116, 24 h
A498 [10] = assay: Growth inhibition of human A498 cells at 10 uM after 24 hrs by MTT assay relative to control; design: scale not given: the % may be the effect or the level left
BT-549 = assay: Growth inhibition of human BT549 cells at 10 uM after 24 hrs by MTT assay relative to control; design: scale not given: the % may be the effect or the level left
UO-31 [11] = assay: Growth inhibition of human UO31 cells at 10 uM after 24 hrs by MTT assay relative to control; design: scale not given: the % may be the effect or the level left
SK-MEL-28 = assay: Growth inhibition of human SK-MEL-28 cells after 24 hrs by MTT assay; conditions: SK-MEL-28, 24 h
[12] = read-out: LC50 (the source's name)
[13] = read-out: pLC50 (the source's name) (converted)

## Cc1onc(-c2c3ccccc3c(Cl)c3ccccc23)c1C(=O)Nc1cc(C(=O)NCCCN(C)CCCNC(=O)c2cc(NC(=O)c3c(-c4c5ccccc5c(Cl)c5ccccc45)noc3C)cn2C)n(C)c1
A549
  Activity: -59.15%
EKVX
  TGI: 5270 nM
EKVX; read-out: GI50
  GI50: 1910 nM
EKVX; [12]
  CC50: 100000 nM
EKVX; read-out: pGI50 (converted)
  GI50: 1910 nM
EKVX; [13]
  CC50: > 100000 nM
HCT-116 [1]
  Activity: -84.49%
RXF 393
  TGI: 3300 nM
RXF 393; read-out: GI50
  GI50: 1630 nM
RXF 393; read-out: pGI50 (converted)
  GI50: 1620 nM
786-0
  TGI: 4940 nM
786-0; read-out: GI50
  GI50: 2130 nM
786-0; [12]
  CC50: 16700 nM
786-0; read-out: pGI50 (converted)
  GI50: 2140 nM
786-0; [13]
  CC50: 16600 nM
UO-31 [2]
  TGI: 3400 nM
UO-31 [2]; read-out: GI50
  GI50: 1780 nM
UO-31 [2]; read-out: pGI50 (converted)
  GI50: 1780 nM
MOLT-4
  Activity: -100%
UACC-257
  TGI: 4630 nM
UACC-257; read-out: GI50
  GI50: 2150 nM
UACC-257; read-out: pGI50 (converted)
  GI50: 2140 nM
MDA-MB-468
  TGI: 2780 nM
MDA-MB-468; read-out: GI50
  GI50: 1330 nM
MDA-MB-468; [12]
  CC50: 5810 nM
MDA-MB-468; read-out: pGI50 (converted)
  GI50: 1320 nM
MDA-MB-468; [13]
  CC50: 5750 nM
OVCAR-8 [3]
  Activity: -63.16%
NCI-H23
  Activity: -73.08%
HOP-92
  Activity: -16.66%
HOP-62 [4]
  Activity: -87.55%
SK-MEL-5
  TGI: 2790 nM
SK-MEL-5; read-out: GI50
  GI50: 1480 nM
SK-MEL-5; [12]
  CC50: 5280 nM
SK-MEL-5; read-out: pGI50 (converted)
  GI50: 1480 nM
SK-MEL-5; [13]
  CC50: 5250 nM
SNB-75
  TGI: 2710 nM
SNB-75; read-out: GI50
  GI50: 1070 nM
SNB-75; [12]
  CC50: 6840 nM
SNB-75; read-out: pGI50 (converted)
  GI50: 1070 nM
SNB-75; [13]
  CC50: 6920 nM
OVCAR-8 [5]
  TGI: 4090 nM
OVCAR-8 [5]; read-out: GI50
  GI50: 1970 nM
OVCAR-8 [5]; read-out: pGI50 (converted)
  GI50: 2000 nM
A498 [6]
  TGI: 17700 nM
A498 [6]; read-out: GI50
  GI50: 2630 nM
A498 [6]; [12]
  CC50: 44400 nM
A498 [6]; read-out: pGI50 (converted)
  GI50: 2630 nM
A498 [6]; [13]
  CC50: 44700 nM
HL-60(TB)
  Activity: -94.78%
SW-620
  Activity: -100%
LOX IMVI
  Activity: -100%
SNB-19
  Activity: -100%
SF-295
  Activity: -75.66%
OVCAR-4
  TGI: 2880 nM
OVCAR-4; read-out: GI50
  GI50: 1490 nM
OVCAR-4; [12]
  CC50: 5560 nM
OVCAR-4; read-out: pGI50 (converted)
  GI50: 1480 nM
OVCAR-4; [13]
  CC50: 5620 nM
SK-OV-3
  TGI: 2870 nM
SK-OV-3; read-out: GI50
  GI50: 1540 nM
SK-OV-3; [12]
  CC50: 5360 nM
SK-OV-3; read-out: pGI50 (converted)
  GI50: 1550 nM
SK-OV-3; [13]
  CC50: 5370 nM
[7]
  Activity: -71.85%
CAKI-1
  TGI: 5850 nM
CAKI-1; read-out: GI50
  GI50: 2400 nM
CAKI-1; [12]
  CC50: 31300 nM
CAKI-1; read-out: pGI50 (converted)
  GI50: 2400 nM
CAKI-1; [13]
  CC50: 31600 nM
CCRF-CEM
  TGI: 3550 nM
CCRF-CEM; read-out: GI50
  GI50: 1600 nM
CCRF-CEM; [12]
  CC50: 7900 nM
CCRF-CEM; read-out: pGI50 (converted)
  GI50: 1580 nM
CCRF-CEM; [13]
  CC50: 7940 nM
HOP-62 [8]
  TGI: 2650 nM
HOP-62 [8]; read-out: GI50
  GI50: 1360 nM
HOP-62 [8]; [12]
  CC50: 5140 nM
HOP-62 [8]; read-out: pGI50 (converted)
  GI50: 1350 nM
HOP-62 [8]; [13]
  CC50: 5130 nM
HCT-116 [9]
  TGI: 2880 nM
HCT-116 [9]; read-out: GI50
  GI50: 1540 nM
HCT-116 [9]; read-out: pGI50 (converted)
  GI50: 1550 nM
A498 [10]
  Activity: 103.19%
BT-549
  Activity: -49.26%
UO-31 [11]
  Activity: -80.7%
SK-MEL-28
  TGI: 2980 nM
SK-MEL-28; read-out: GI50
  GI50: 1630 nM
SK-MEL-28; [12]
  CC50: 5460 nM
SK-MEL-28; read-out: pGI50 (converted)
  GI50: 1620 nM
SK-MEL-28; [13]
  CC50: 5500 nM

— ChEMBL document CHEMBL1152405, “Bis-anthracenyl isoxazolyl amides have enhanced anticancer activity” (Bioorg Med Chem Lett, 2009)
